pKi: −log10 of the molar value.
Molecular target: T1, hCRTH2 (Homo sapiens, UniProt Q9Y5Y4)
T1 construct: expressed in transfected cells; host or cells: HEK (human embryonic kidney) cells expressing hCRTH2; membrane preparation
T1 sequence (Q9Y5Y4 1-395): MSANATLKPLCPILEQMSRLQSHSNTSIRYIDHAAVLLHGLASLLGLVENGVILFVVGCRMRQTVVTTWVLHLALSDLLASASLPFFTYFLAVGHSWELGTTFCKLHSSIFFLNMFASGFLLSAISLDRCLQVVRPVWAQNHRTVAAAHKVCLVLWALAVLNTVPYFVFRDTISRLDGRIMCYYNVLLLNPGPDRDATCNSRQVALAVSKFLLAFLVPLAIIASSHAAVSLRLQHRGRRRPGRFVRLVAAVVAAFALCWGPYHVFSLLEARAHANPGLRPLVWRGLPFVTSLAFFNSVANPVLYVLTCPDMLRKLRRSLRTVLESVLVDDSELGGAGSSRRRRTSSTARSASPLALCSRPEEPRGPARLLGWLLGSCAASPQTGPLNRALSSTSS
Assay: Radioligand binding assay ([3H]PGD2 competition, HEK-hCRTH2 membranes)
How it was run: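 Membranes (8-20 μg protein) from HEK-hCRTH2 cells were incubated 60 min at room temperature with 3.0 nM [3H]PGD2 in 50 mM Tris-HCl pH 7.4, 1 mM EDTA, 2 mM MnCl2, 1% DMSO. Non-specific binding defined with 10 μM PGD2. Bound radioactivity counted after filtration.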

pKi ([3H]PGD2 competition, Table B)	pKi ([3H]PGD2 binding, values in text)	SMILES
6.70 to 7.70	–	C[C@@H](NC(=O)c1ccc2nc(-c3ccc(F)cc3)c(CCCC(F)(F)C(=O)O)nc2c1)c1ccc(F)cc1 [compound 487, (R)-2,2-difluoro-5-(3-(4-fluorophenyl)-7-((1-(4-fluorophenyl)ethyl)carbamoyl)quinoxalin-2-yl) pentanoic acid]
7.70 to 8.68	–	C[C@@H]1CN(c2ccc(F)cc2)CCN1C(=O)c1ccc2nc(-c3ccc(Cl)cc3)c(CCCCC(=O)O)nc2c1 [compound 488, (R)-5-(3-(4-chlorophenyl)-7-(4-(4-fluorophenyl)-2-methylpiperazine-1-carbonyl)quinoxalin-2-yl)pentanoic acid]
7.70 to 8.68	–	C[C@@H]1CN(c2ccc(F)cc2)CCN1C(=O)c1ccc2nc(-c3ccc(F)cc3)c(CCCCC(=O)O)nc2c1 [compound 489, (R)-5-(3-(4-fluorophenyl)-7-(4-(4-fluorophenyl)-2-methylpiperazine-1-carbonyl)quinoxalin-2-yl)pentanoic acid]
7.70 to 8.68	–	C[C@H]1CN(c2ccc(F)cc2)CCN1C(=O)c1ccc2nc(-c3ccc(Cl)cc3)c(CCCCC(=O)O)nc2c1 [compound 490, (S)-5-(3-(4-chlorophenyl)-7-(4-(4-fluorophenyl)-2-methylpiperazine-1-carbonyl)quinoxalin-2-yl)pentanoic acid]
8.70 to 10.00	–	O=C(O)CCCCc1nc2cc(C(=O)N[C@@H]3CCOc4ccccc43)ccc2nc1-c1ccc(F)cc1 [compound 491, (R)-5-(7-(chroman-4-ylcarbamoyl)-3-(4-fluorophenyl)quinoxalin-2-yl)pentanoic acid]
7.70 to 8.68	–	O=C(O)CCCCc1nc2cc(C(=O)N[C@H]3CCOc4ccccc43)ccc2nc1-c1ccc(F)cc1 [compound 492, (S)-5-(7-(chroman-4-ylcarbamoyl)-3-(4-fluorophenyl)quinoxalin-2-yl)pentanoic acid]
7.70 to 8.68	–	C[C@@H](NC(=O)c1ccc2nc(-c3ccc(Cl)cc3)c(CCCCC(=O)O)nc2c1)c1cccc2ccccc12 [compound 493, (R)-5-(3-(4-chlorophenyl)-7-((1-(naphthalen-1-yl)ethyl)carbamoyl)quinoxalin-2-yl)pentanoic acid]
7.70 to 8.68	–	C[C@H](NC(=O)c1ccc2nc(-c3ccc(Cl)cc3)c(CCCCC(=O)O)nc2c1)c1cccc2ccccc12 [compound 494, (S)-5-(3-(4-chlorophenyl)-7-((1-(naphthalen-1-yl)ethyl)carbamoyl)quinoxalin-2-yl)pentanoic acid]
7.70 to 8.68	–	C[C@@H](NC(=O)c1ccc2nc(-c3ccc(Cl)cc3)c(CCCCC(=O)O)nc2c1)c1ccc2ccccc2c1 [compound 495, (R)-5-(3-(4-chlorophenyl)-7-((1-(naphthalen-2-yl)ethyl)carbamoyl)quinoxalin-2-yl)pentanoic acid]
7.70 to 8.68	–	C[C@H](NC(=O)c1ccc2nc(-c3ccc(Cl)cc3)c(CCCCC(=O)O)nc2c1)c1ccc2ccccc2c1 [compound 496, (S)-5-(3-(4-chlorophenyl)-7-((1-(naphthalen-2-yl)ethyl)carbamoyl)quinoxalin-2-yl)pentanoic acid]
7.70 to 8.68	–	C[C@H]1CN(c2ccc(F)cc2)CCN1C(=O)c1ccc2nc(-c3ccc(F)cc3)c(CCCCC(=O)O)nc2c1 [compound 497, (S)-5-(3-(4-fluoro-phenyl)-7-(4-(4-fluorophenyl)-2-methylpiperazine-1-carbonyl)quinoxalin-2-yl)pentanoic acid]
7.70 to 8.68	–	C[C@@H]1CN(c2ccccc2)CCN1C(=O)c1ccc2nc(-c3ccc(Cl)cc3)c(CCCCC(=O)O)nc2c1 [compound 498, (R)-5-(3-(4-chlorophenyl)-7-(2-methyl-4-phenyl-piperazine-1-carbonyl)quinoxalin-2-yl)pentanoic acid]
7.70 to 8.68	–	C[C@@H]1CN(c2ccccc2)CCN1C(=O)c1ccc2nc(-c3ccc(F)cc3)c(CCCCC(=O)O)nc2c1 [compound 499, (R)-5-(3-(4-fluorophenyl)-7-(2-methyl-4-phenyl-piperazine-1-carbonyl)quinoxalin-2-yl)pentanoic acid]
7.70 to 8.68	–	O=C(N[C@@H]1CCCc2ccccc21)c1ccc2nc(-c3ccc(F)cc3)c(CC[C@@H]3C[C@H]3C(=O)O)nc2c1 [compound 500, (1R,2R)-2-(2-(3-(4-fluorophenyl)-7-(((R)-1,2,3,4-tetrahydronaphthalen-1-yl)carbamoyl)quinoxalin-2-yl)ethyl)cyclopropane-carboxylic acid]
6.70 to 7.70	–	O=C(N[C@@H]1CCCc2ccccc21)c1ccc2nc(-c3ccc(F)cc3)c(CCC3CC3C(=O)O)nc2c1 (stereo partly drawn) [compound 501, 2-(2-(3-(4-fluorophenyl)-7-(((R)-1,2,3,4-tetrahydronaphthalen-1-yl)carbamoyl)quinoxalin-2-yl)ethyl)cyclopropane-carboxylic acid]
6.70 to 7.70	–	O=C(O)CCCCc1nc2cc(C(=O)NC3CCCc4cc(C(F)(F)F)cnc43)ccc2nc1-c1ccccc1 (stereo not shown) [compound 502, 5-(3-phenyl-7-((3-(trifluoromethyl)-5,6,7,8-tetrahydroquinolin-8-yl)carbamoyl)quinoxalin-2-yl)pentanoic acid]
6.70 to 7.70	–	O=C(O)CCCCc1nc2cc(C(=O)N[C@@H]3CCCc4ncccc43)ccc2nc1-c1ccccc1 [compound 503, (R)-5-(3-phenyl-7-((5,6,7,8-tetrahydroquinolin-5-yl)carbamoyl)quinoxalin-2-yl)pentanoic acid]
7.70 to 8.68	–	O=C(O)CCCCc1nc2cc(C(=O)N[C@H]3CCCc4ncccc43)ccc2nc1-c1ccccc1 [compound 504, (S)-5-(3-phenyl-7-((5,6,7,8-tetrahydroquinolin-5-yl)carbamoyl)quinoxalin-2-yl)pentanoic acid]
7.70 to 8.68	–	O=C(O)CCCCc1nc2cc(C(=O)NC3CCCc4cnccc43)ccc2nc1-c1ccccc1 (stereo not shown) [compound 505, 5-(3-phenyl-7-((5,6,7,8-tetrahydroisoquinolin-5-yl)carbamoyl)quinoxalin-2-yl)pentanoic acid]
8.70 to 10.00	–	O=C(O)CCCCc1nc2cc(C(=O)N[C@@H]3CCOc4ccccc43)ccc2nc1-c1ccc(Cl)cc1 [compound 506]
8.70 to 10.00	8.89	O=C(O)CCCCc1nc2cc(C(=O)N[C@H]3CCOc4ccccc43)ccc2nc1-c1ccc(Cl)cc1 [compound 507, (S)-5-(3-(4-chlorophenyl)-7-(chroman-4-ylcarbamoyl)quinoxalin-2-yl)pentanoic acid]
7.70 to 8.68	–	O=C(O)CCCCc1nc2cc(C(=O)N[C@H]3c4ccccc4C[C@H]3O)ccc2nc1-c1ccc(F)cc1 [compound 508, 5-(3-(4-fluorophenyl)-7-(((1S,2R)-2-hydroxy-2,3-dihydro-1H-inden-1-yl)carbamoyl)quinoxalin-2-yl)pentanoic acid]
6.70 to 7.70	–	O=C(O)CCCCc1nc2cc(C(=O)N[C@@H]3c4ccccc4C[C@@H]3O)ccc2nc1-c1ccc(F)cc1 [compound 509, 5-(3-(4-fluorophenyl)-7-(((1R,2S)-2-hydroxy-2,3-dihydro-1H-inden-1-yl)carbamoyl)quinoxalin-2-yl)pentanoic acid]
6.70 to 7.70	–	O=C(O)CCCCc1nc2cc(C(=O)N[C@@H]3c4ccccc4C[C@H]3O)ccc2nc1-c1ccc(F)cc1 [compound 510, 5-(3-(4-fluorophenyl)-7-(((1R,2R)-2-hydroxy-2,3-dihydro-1H-inden-1-yl)carbamoyl)quinoxalin-2-yl)pentanoic acid]

Reference: patent US9469615B2, “Quinoxalines and AZA-quinoxalines as CRTH2 receptor modulators” (Merck Sharp & Dohme Corp., priority 2010, dated 2016)
